Results as given in US20180320217A1, “METHODS FOR SAMPLING AND MEASURING ORAL LAVAGE PROTEINS” (The Procter & Gamble Company, priority 2017, published 2018).
Several values for one entry are separate records, joined by “and”; a condition that tells them apart may be missing. Equal values may be shown once. Entries after “also recorded” stand apart in the source; their conditions may differ. Where a name gives a salt, the structure may show the parent alone. Blank lines part the entries; values can stand above or below the compound they belong to.

Experiments:
Malate dehydrogenase [1] = target: T1, Malate dehydrogenase (Sus scrofa, UniProt P00346); experiment: Effect of concentrations of malate on formation of formazan dyes (FIG. 6); type: biochemical; set-up: purchased Sigma-Aldrich 10127248001 / 10127914001 (MDH); conditions: 2 mM WST-8, 128.5 μM NAD+, 1.5 units malate dehydrogenase
T1 sequence (P00346 25-338): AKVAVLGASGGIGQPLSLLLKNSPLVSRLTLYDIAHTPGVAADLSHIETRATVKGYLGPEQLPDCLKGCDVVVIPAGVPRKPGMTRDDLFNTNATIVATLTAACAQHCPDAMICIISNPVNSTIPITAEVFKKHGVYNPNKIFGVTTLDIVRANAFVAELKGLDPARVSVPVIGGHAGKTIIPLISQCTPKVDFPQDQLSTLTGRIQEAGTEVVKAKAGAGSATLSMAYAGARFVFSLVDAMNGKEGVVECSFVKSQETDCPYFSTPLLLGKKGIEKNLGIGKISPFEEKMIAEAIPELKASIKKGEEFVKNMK
Description: Substrate concentrations are important parameters in an enzymatic assay. An experiment was carried out to determine the effect of malate concentrations on formation of formazan dyes. […] Absorbance was measured every 5 minutes for 2 hours. […] But at low concentrations from 0.001 mM to 15.6 mM, formation of formazan dyes was positively correlated with malate concentrations.

Malate dehydrogenase [2] = target: T1, Malate dehydrogenase; experiment: Effect of concentrations of NAD+ on formation of formazan dyes (FIG. 5); type: biochemical; set-up: purchased Sigma-Aldrich 10127248001 / 10127914001 (MDH); conditions: 2 mM WST-8, 15 mM malate, 1.5 units malate dehydrogenase
Description: To determine optimal conditions for quantifying enzymes in the gingival brush samples, oral lavage and gingival plaques, an experiment was carried out to determine the effect of NAD+ on conversion of tetrazolium salts to formazan dyes. […] Absorbance was taken at every 5 minutes for 2 hours.

oral lavage [3] = experiment: Formation of formazan dyes: oral lavage and diaphorase, not malate (TABLE 11); type: biochemical, human
[4] = tested on: Malate dehydrogenase and diaphorase; experiment: Formation of formazan dyes: Malate dehydrogenase and diaphorase, absence of malate (TABLE 9); type: biochemical, pig heart
[5] = Formation of formazan dyes: NADH and 1-methoxy PMS, absence of malate (TABLE 15); type: biochemical; conditions: disodium salt
Malate dehydrogenase [6] = target: T1, Malate dehydrogenase; experiment: Formation of formazan dyes: Malate dehydrogenase and 1-Methoxy PMS, absence of malate (TABLE 17); type: biochemical, pig heart; set-up: L-malate dehydrogenase (pig heart); purchased Sigma-Aldrich 10127248001 / 10127914001
diaphorase [7] = experiment: Effect of concentrations of tetrazolium salts on formation of formazan dyes (FIGS. 4A-4G); type: biochemical; conditions: 15 mM NADH+H, 20 μg diaphorase, pH 7.5; FIGS. 4A to 4G
Description: On the idea that higher concentrations of tetrazolium salts in the assay buffer would likely result in more formazan dyes in the reaction, various concentrations of tetrazolium salts were added to a reaction buffer and the formation of formazan dyes were measured at 0, 30 and 60 minutes. […] The reactions were performed at room temperature. Absorbance was taken at 0, 30 and 60 minutes.

diaphorase [8] = experiment: Formation of formazan dyes: NADH, diaphorase and malate (TABLE 8); type: biochemical, Clostridium kluyveri; conditions: NADH, diaphorase and malate
[9] = Formation of formazan dyes: control buffer, malate and 1-Methoxy PMS (TABLE 22); type: biochemical
diaphorase [10] = experiment: Formation of formazan dyes: only diaphorase, not malate (TABLE 13); type: biochemical, Clostridium kluyveri; conditions: mean of three experiments
diaphorase [11] = experiment: Formation of formazan dyes: only diaphorase and malate (TABLE 14); type: biochemical, Clostridium kluyveri; conditions: mean of three experiments
oral lavage [12] = experiment: Formation of formazan dyes: oral lavage, malate and diaphorase (TABLE 12); type: biochemical, human; conditions: oral lavage, malate and diaphorase
[13] = Formation of formazan dyes: NADH, malate and 1-methoxy PMS (TABLE 16); type: biochemical
oral lavage [14] = experiment: Formation of formazan dyes: oral lavage and 1-Methoxy PMS, absence of malate (TABLE 19); type: biochemical, human; conditions: disodium salt
[15] = Formation of formazan dyes: control buffer and 1-Methoxy PMS, absence of malate (TABLE 21); type: biochemical; conditions: disodium salt
diaphorase [16] = experiment: Formation of formazan dyes: NADH and diaphorase, absence of malate (TABLE 7); type: biochemical, Clostridium kluyveri; conditions: NADH and diaphorase, absence of malate
[17] = tested on: Malate dehydrogenase and diaphorase; experiment: Formation of formazan dyes: Malate dehydrogenase, diaphorase and malate (TABLE 10); type: biochemical, pig heart
[18] = UV absorbance analysis of formazan products, TABLE 6; conditions: in the presence of 1-methoxy PMS

malate concentrations that inhibited production of formazan dyes (Malate dehydrogenase [1]): above 65 mM
SMILES: O=C(O)CC(O)C(=O)O (centres unmarked) [malate]

SMILES: NC(=O)c1ccc[n+]([C@@H]2O[C@H](COP(=O)([O-])OP(=O)(O)OC[C@H]3O[C@@H](n4cnc5c(N)ncnc54)[C@H](O)[C@@H]3O)[C@@H](O)[C@H]2O)c1 [NAD+, Nicotinamide adenine dinucleotide]
amount of formazan formation versus NAD+ concentration (Malate dehydrogenase [2]): proportional to the concentrations of NAD+

SMILES: COc1cc(-c2ccc(-[n+]3nc(-c4ccc(C(=O)N(CCS(=O)(=O)[O-])CCS(=O)(=O)[O-])cc4)nn3-c3nc4ccccc4s3)c(OC)c2)ccc1-[n+]1nc(-c2ccc(C(=O)N(CCS(=O)(=O)[O-])CCS(=O)(=O)[O-])cc2)nn1-c1nc2ccccc2s1.[Na+].[Na+] [WST-5, 2,2′-Dibenzothiazolyl-5,5′-bis[4-di(2-sulfoethyl)carbamoylphenyl]-3,3′-(3,3′-dimethoxy 4,4′-biphenylene)ditetrazolium, disodium salt]
Formation of formazan dyes, absorbance, Means 0 h (oral lavage [3]; oral lavage and diaphorase, not malate, 0 h): 0.60 | Formation of formazan dyes, absorbance, Means 1 h (oral lavage [3]; oral lavage and diaphorase, not malate, 1 h): 0.72 | Formation of formazan dyes, absorbance, Means 2 h (oral lavage [3]; oral lavage and diaphorase, not malate, 2 h): 0.77 | Formation of formazan dyes, absorbance, Means 3 h (oral lavage [3]; oral lavage and diaphorase, not malate, 3 h): 0.80 | Formation of formazan dyes, absorbance, Means 4 h (oral lavage [3]; oral lavage and diaphorase, not malate, 4 h): 0.78 | Formation of formazan dyes, absorbance, Means 6 h (oral lavage [3]; oral lavage and diaphorase, not malate, 6 h): 0.83 | Formation of formazan dyes, absorbance, Means 8 h (oral lavage [3]; oral lavage and diaphorase, not malate, 8 h): 0.84 | Formation of formazan dyes, absorbance, Means 10 h (oral lavage [3]; oral lavage and diaphorase, not malate, 10 h): 0.81 | Formation of formazan dyes, absorbance, Means 12 h (oral lavage [3]; oral lavage and diaphorase, not malate, 12 h): 0.80 | reduction to formazan dyes by pooled oral lavage (oral lavage [3]; pooled oral lavage of high bleeder group, diaphorase, no added malate (TABLE 11)): partially reduced to formazan dyes | Formation of formazan dyes, absorbance, Means 0 h ([4]; Malate dehydrogenase and diaphorase, absence of malate, 0 h): 0.83 | Formation of formazan dyes, absorbance, Means 1 h ([4]; Malate dehydrogenase and diaphorase, absence of malate, 1 h): 1.35 | Formation of formazan dyes, absorbance, Means 2 h ([4]; Malate dehydrogenase and diaphorase, absence of malate, 2 h): 1.58 | Formation of formazan dyes, absorbance, Means 3 h ([4]; Malate dehydrogenase and diaphorase, absence of malate, 3 h): 1.74 | Formation of formazan dyes, absorbance, Means 4 h ([4]; Malate dehydrogenase and diaphorase, absence of malate, 4 h): 1.86 | Formation of formazan dyes, absorbance, Means 6 h ([4]; Malate dehydrogenase and diaphorase, absence of malate, 6 h): 2.06 | Formation of formazan dyes, absorbance, Means 8 h ([4]; Malate dehydrogenase and diaphorase, absence of malate, 8 h): 2.24 | Formation of formazan dyes, absorbance, Means 10 h ([4]; Malate dehydrogenase and diaphorase, absence of malate, 10 h): 2.33 | Formation of formazan dyes, absorbance, Means 12 h ([4]; Malate dehydrogenase and diaphorase, absence of malate, 12 h): 2.33 | reduction of tetrazolium dye in the absence of substrate malate ([4]; malate dehydrogenase and diaphorase (TABLE 9)): partially reduced | Absorbance, formation of formazan dyes (Means) [5]: 2.12 and 2.14 and 2.18 and 2.22 | reduction by malate dehydrogenase alone (Malate dehydrogenase [6]): did not catalyze the reduction | Absorbance, formation of formazan dyes (Means) (Malate dehydrogenase [6]; disodium salt): 0.24 and 0.37 and 0.41 and 0.43 | concentration of tetrazolium salt at which absorbance reached peaks (diaphorase [7]): 1 mM | Formation of formazan dyes, absorbance, Means 0 h (diaphorase [8]; 0 h): 2.62 | Formation of formazan dyes, absorbance, Means 1 h (diaphorase [8]; 1 h): 2.48 | Formation of formazan dyes, absorbance, Means 2 h (diaphorase [8]; 2 h): 2.44 | Formation of formazan dyes, absorbance, Means 3 h (diaphorase [8]; 3 h): 2.41 | Formation of formazan dyes, absorbance, Means 4 h (diaphorase [8]; 4 h): 2.45 | Formation of formazan dyes, absorbance, Means 6 h (diaphorase [8]; 6 h): 2.41 | Formation of formazan dyes, absorbance, Means 8 h (diaphorase [8]; 8 h): 2.36 | Formation of formazan dyes, absorbance, Means 10 h (diaphorase [8]; 10 h): 2.31 | Formation of formazan dyes, absorbance, Means 12 h (diaphorase [8]; 12 h): 2.26 | Means absorbance 0 h [9]: 0.13 | Means absorbance 1 h [9]: 0.15 | Means absorbance 2 h [9]: 0.16 | Means absorbance 3 h [9]: 0.16 | Absorbance, formation of formazan dyes (Means) (diaphorase [10]; 0 h): 0.25 | Absorbance, formation of formazan dyes (Means) (diaphorase [10]; 1 h): 0.30 | Absorbance, formation of formazan dyes (Means) (diaphorase [10]; 2 h): 0.35 | Absorbance, formation of formazan dyes (Means) (diaphorase [10]; 3 h): 0.32 | Absorbance, formation of formazan dyes (Means) (diaphorase [10]; 4 h): 0.32 | Absorbance, formation of formazan dyes (Means) (diaphorase [10]; 6 h): 0.38 | Absorbance, formation of formazan dyes (Means) (diaphorase [10]; 8 h): 0.41 | Absorbance, formation of formazan dyes (Means) (diaphorase [10]; 10 h): 0.38 | Absorbance, formation of formazan dyes (Means) (diaphorase [10]; 12 h): 0.36 | Absorbance, formation of formazan dyes (Means) (diaphorase [11]; 0 h): 0.09 | Absorbance, formation of formazan dyes (Means) (diaphorase [11]; 1 h): 0.12 | Absorbance, formation of formazan dyes (Means) (diaphorase [11]; 2 h): 0.15 | Absorbance, formation of formazan dyes (Means) (diaphorase [11]; 3 h): 0.18 | Absorbance, formation of formazan dyes (Means) (diaphorase [11]; 4 h): 0.21 | Absorbance, formation of formazan dyes (Means) (diaphorase [11]; 6 h): 0.23 | Absorbance, formation of formazan dyes (Means) (diaphorase [11]; 8 h): 0.26 | Absorbance, formation of formazan dyes (Means) (diaphorase [11]; 10 h): 0.29 | Absorbance, formation of formazan dyes (Means) (diaphorase [11]; 12 h): 0.32 | Formation of formazan dyes, absorbance, Means 0 h (oral lavage [12]; 0 h): 0.57 | Formation of formazan dyes, absorbance, Means 1 h (oral lavage [12]; 1 h): 0.74 | Formation of formazan dyes, absorbance, Means 2 h (oral lavage [12]; 2 h): 0.80 | Formation of formazan dyes, absorbance, Means 3 h (oral lavage [12]; 3 h): 0.75 | Formation of formazan dyes, absorbance, Means 4 h (oral lavage [12]; 4 h): 0.67 | Formation of formazan dyes, absorbance, Means 6 h (oral lavage [12]; 6 h): 0.85 | Formation of formazan dyes, absorbance, Means 8 h (oral lavage [12]; 8 h): 0.90 | Formation of formazan dyes, absorbance, Means 10 h (oral lavage [12]; 10 h): 1.02 | Formation of formazan dyes, absorbance, Means 12 h (oral lavage [12]; 12 h): 1.08 | Absorbance, formation of formazan dyes (Means) [13]: 1.84 | Absorbance, formation of formazan dyes (Means) (oral lavage [14]): 0.77 and 1.11 and 1.29 and 1.39 | Absorbance, formation of formazan dyes (Means) [15]: 0.33 and 0.45 and 0.48 and 0.55 | Formation of formazan dyes, absorbance, Means 0 h (diaphorase [16]; 0 h): 2.81 | Formation of formazan dyes, absorbance, Means 1 h (diaphorase [16]; 1 h): 2.81 | Formation of formazan dyes, absorbance, Means 2 h (diaphorase [16]; 2 h): 2.79 | Formation of formazan dyes, absorbance, Means 3 h (diaphorase [16]; 3 h): 2.78 | Formation of formazan dyes, absorbance, Means 4 h (diaphorase [16]; 4 h): 2.86 | Formation of formazan dyes, absorbance, Means 6 h (diaphorase [16]; 6 h): 2.83 | Formation of formazan dyes, absorbance, Means 8 h (diaphorase [16]; 8 h): 2.77 | Formation of formazan dyes, absorbance, Means 10 h (diaphorase [16]; 10 h): 2.74 | Formation of formazan dyes, absorbance, Means 12 h (diaphorase [16]; 12 h): 2.66 | Formation of formazan dyes, absorbance, Means 0 h ([17]; Malate dehydrogenase, diaphorase and malate, 0 h): 0.75 | Formation of formazan dyes, absorbance, Means 1 h ([17]; Malate dehydrogenase, diaphorase and malate, 1 h): 1.32 | Formation of formazan dyes, absorbance, Means 2 h ([17]; Malate dehydrogenase, diaphorase and malate, 2 h): 1.67 | Formation of formazan dyes, absorbance, Means 3 h ([17]; Malate dehydrogenase, diaphorase and malate, 3 h): 1.93 | Formation of formazan dyes, absorbance, Means 4 h ([17]; Malate dehydrogenase, diaphorase and malate, 4 h): 2.04 | Formation of formazan dyes, absorbance, Means 6 h ([17]; Malate dehydrogenase, diaphorase and malate, 6 h): 2.20 | Formation of formazan dyes, absorbance, Means 8 h ([17]; Malate dehydrogenase, diaphorase and malate, 8 h): 2.34 | Formation of formazan dyes, absorbance, Means 10 h ([17]; Malate dehydrogenase, diaphorase and malate, 10 h): 2.49 | Formation of formazan dyes, absorbance, Means 12 h ([17]; Malate dehydrogenase, diaphorase and malate, 12 h): 2.60 | conversion to reduced formazan dyes ([17]; malate dehydrogenase, diaphorase and malate (TABLE 10), disodium salt): converted to reduced formazan dyes in a time-dependent fashion; also recorded: able to catalyze the reduction

SMILES: O=[N+]([O-])c1ccc(-n2nc(-c3ccccc3)n[n+]2-c2ccc(/N=N/c3ccc(S(=O)(=O)O)cc3)cc2S(=O)(=O)[O-])cc1 [WST-9, 2-(4-Nitrophenyl)-5-phenyl-3-[4-(4-sulfophenylazo)-2-sulfophenyl]-2H-tetrazolium, monosodium salt]
solubility of formazan products [18]: form precipitates
